Assay results as given in ChEMBL document CHEMBL1201862, “PubChem BioAssay data set” (2004).
Calls of active or inactive are those of the source.

What was measured:
[1] = biological target: T1, Caspase-3 (Homo sapiens, UniProt P42574); assay type: functional;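 also: Dose-response selectivity test against caspase-3 for candidate inhibitors of sentrin-specific proteases (SENPs)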
T1 sequence (P42574 whole entry): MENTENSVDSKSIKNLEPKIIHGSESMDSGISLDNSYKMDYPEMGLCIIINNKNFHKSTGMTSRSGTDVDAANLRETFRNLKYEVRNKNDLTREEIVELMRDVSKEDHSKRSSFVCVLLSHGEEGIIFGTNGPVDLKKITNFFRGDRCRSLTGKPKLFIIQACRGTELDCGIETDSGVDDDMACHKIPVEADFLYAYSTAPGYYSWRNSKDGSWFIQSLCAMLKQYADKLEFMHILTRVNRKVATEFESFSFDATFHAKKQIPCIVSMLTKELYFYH

[2] = biological target: T2, Sentrin-specific protease 7 (Homo sapiens, UniProt Q9BQF6); assay type: functional;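 also: Luminescence-based dose-response confirmation of ultra-high-throughput screening hits, measuring inhibition of SENP7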
T2 sequence (Q9BQF6 whole entry): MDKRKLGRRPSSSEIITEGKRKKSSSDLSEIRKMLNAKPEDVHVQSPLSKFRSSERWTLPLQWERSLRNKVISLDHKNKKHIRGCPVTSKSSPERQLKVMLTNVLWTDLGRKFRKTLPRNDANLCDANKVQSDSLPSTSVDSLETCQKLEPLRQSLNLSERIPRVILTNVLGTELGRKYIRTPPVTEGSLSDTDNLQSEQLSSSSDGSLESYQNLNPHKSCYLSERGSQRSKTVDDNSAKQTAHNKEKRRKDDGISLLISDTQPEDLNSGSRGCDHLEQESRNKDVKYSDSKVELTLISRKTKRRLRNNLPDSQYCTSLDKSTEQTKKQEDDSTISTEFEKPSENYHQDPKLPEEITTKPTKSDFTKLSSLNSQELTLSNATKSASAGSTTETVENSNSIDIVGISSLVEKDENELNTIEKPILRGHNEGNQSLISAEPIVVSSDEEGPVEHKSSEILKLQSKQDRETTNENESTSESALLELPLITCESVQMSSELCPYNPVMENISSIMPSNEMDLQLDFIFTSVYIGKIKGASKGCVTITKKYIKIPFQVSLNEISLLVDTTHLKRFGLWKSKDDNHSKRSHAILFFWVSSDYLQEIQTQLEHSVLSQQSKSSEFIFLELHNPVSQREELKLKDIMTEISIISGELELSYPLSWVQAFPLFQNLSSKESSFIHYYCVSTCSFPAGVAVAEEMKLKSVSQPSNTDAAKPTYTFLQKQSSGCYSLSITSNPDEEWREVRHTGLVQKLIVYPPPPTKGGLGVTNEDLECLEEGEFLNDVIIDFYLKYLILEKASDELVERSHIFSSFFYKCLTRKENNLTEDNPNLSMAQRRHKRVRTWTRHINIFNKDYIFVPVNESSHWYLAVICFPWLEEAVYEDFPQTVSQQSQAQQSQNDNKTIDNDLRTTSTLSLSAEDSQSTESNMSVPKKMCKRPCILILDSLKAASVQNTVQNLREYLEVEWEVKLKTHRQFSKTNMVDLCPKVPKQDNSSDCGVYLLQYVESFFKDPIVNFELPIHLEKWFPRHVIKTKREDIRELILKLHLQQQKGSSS

[3] = biological target: T3, Sentrin-specific protease 6 (Homo sapiens, UniProt Q9GZR1); assay type: functional;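 also: Luminescence-based dose-response confirmatory assay of SENP6 inhibition, following up an ultra-high-throughput screen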
T3 sequence (Q9GZR1 whole entry): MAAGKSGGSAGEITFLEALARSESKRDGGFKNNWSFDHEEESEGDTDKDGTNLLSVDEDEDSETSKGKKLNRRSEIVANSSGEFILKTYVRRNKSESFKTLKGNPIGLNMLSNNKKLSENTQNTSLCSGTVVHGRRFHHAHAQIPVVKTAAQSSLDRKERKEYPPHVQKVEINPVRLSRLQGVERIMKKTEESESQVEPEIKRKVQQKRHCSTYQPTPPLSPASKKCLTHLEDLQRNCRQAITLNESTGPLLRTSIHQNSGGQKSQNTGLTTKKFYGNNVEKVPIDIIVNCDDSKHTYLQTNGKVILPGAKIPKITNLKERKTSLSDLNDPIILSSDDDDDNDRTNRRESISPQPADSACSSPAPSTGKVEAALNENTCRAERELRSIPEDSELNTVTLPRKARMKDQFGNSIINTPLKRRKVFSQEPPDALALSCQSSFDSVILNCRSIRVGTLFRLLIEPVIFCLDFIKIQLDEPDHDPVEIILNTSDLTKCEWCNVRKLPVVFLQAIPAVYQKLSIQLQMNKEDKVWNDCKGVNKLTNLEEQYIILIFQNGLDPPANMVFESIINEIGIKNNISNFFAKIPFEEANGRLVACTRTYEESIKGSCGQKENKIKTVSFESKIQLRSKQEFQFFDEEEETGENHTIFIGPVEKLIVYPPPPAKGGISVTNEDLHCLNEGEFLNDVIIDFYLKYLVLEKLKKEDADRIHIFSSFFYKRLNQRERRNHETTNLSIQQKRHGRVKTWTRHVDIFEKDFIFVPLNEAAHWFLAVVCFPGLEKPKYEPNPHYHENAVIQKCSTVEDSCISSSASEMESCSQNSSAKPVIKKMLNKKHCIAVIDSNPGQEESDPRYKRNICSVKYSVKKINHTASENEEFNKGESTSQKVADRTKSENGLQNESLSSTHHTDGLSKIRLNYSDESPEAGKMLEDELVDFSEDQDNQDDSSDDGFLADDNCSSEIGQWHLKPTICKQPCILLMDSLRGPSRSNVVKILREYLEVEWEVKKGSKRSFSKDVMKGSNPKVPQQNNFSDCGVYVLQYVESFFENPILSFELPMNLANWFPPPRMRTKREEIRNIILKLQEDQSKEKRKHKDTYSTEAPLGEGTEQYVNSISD

[4] = biological target: T4, Sentrin-specific protease 8 (Homo sapiens, UniProt Q96LD8); assay type: functional;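 also: luminescence read-out of SENP8 inhibition, dose-response confirmation following an ultra-high-throughput screen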
T4 sequence (Q96LD8 whole entry): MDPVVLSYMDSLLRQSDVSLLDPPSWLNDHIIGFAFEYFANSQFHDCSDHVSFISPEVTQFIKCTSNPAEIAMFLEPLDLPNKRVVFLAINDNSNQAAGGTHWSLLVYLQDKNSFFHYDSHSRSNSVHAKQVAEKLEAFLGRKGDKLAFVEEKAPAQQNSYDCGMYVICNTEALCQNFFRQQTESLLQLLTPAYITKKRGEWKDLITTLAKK

[5] = biological target: Cytochrome P450 3A4 (Homo sapiens, UniProt P08684); conditions: Potency;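 also: confirmatory qHTS run detecting inhibitors and substrates of CYP3A4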
Sequence of Cytochrome P450 3A4 (P08684 whole entry): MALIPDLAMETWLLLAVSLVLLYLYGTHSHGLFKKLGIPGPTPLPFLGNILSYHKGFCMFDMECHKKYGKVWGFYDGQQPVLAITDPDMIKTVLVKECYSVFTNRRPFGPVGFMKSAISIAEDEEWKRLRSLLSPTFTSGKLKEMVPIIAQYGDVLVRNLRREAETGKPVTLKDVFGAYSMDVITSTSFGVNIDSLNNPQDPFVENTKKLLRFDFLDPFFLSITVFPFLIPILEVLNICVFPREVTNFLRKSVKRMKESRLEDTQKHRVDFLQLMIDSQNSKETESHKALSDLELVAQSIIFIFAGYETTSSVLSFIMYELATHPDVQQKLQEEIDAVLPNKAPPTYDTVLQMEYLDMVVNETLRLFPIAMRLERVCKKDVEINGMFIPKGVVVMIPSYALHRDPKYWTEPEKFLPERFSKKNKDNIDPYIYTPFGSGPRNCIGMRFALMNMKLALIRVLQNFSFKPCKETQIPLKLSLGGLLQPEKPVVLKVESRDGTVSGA

[6] = biological target: Voltage-dependent T-type calcium channel subunit alpha-1H (Homo sapiens, UniProt O95180); assay type: functional;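 also: channel activity triggered by adding a high calcium stimulation buffer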
Sequence of Voltage-dependent T-type calcium channel subunit alpha-1H (O95180 whole entry): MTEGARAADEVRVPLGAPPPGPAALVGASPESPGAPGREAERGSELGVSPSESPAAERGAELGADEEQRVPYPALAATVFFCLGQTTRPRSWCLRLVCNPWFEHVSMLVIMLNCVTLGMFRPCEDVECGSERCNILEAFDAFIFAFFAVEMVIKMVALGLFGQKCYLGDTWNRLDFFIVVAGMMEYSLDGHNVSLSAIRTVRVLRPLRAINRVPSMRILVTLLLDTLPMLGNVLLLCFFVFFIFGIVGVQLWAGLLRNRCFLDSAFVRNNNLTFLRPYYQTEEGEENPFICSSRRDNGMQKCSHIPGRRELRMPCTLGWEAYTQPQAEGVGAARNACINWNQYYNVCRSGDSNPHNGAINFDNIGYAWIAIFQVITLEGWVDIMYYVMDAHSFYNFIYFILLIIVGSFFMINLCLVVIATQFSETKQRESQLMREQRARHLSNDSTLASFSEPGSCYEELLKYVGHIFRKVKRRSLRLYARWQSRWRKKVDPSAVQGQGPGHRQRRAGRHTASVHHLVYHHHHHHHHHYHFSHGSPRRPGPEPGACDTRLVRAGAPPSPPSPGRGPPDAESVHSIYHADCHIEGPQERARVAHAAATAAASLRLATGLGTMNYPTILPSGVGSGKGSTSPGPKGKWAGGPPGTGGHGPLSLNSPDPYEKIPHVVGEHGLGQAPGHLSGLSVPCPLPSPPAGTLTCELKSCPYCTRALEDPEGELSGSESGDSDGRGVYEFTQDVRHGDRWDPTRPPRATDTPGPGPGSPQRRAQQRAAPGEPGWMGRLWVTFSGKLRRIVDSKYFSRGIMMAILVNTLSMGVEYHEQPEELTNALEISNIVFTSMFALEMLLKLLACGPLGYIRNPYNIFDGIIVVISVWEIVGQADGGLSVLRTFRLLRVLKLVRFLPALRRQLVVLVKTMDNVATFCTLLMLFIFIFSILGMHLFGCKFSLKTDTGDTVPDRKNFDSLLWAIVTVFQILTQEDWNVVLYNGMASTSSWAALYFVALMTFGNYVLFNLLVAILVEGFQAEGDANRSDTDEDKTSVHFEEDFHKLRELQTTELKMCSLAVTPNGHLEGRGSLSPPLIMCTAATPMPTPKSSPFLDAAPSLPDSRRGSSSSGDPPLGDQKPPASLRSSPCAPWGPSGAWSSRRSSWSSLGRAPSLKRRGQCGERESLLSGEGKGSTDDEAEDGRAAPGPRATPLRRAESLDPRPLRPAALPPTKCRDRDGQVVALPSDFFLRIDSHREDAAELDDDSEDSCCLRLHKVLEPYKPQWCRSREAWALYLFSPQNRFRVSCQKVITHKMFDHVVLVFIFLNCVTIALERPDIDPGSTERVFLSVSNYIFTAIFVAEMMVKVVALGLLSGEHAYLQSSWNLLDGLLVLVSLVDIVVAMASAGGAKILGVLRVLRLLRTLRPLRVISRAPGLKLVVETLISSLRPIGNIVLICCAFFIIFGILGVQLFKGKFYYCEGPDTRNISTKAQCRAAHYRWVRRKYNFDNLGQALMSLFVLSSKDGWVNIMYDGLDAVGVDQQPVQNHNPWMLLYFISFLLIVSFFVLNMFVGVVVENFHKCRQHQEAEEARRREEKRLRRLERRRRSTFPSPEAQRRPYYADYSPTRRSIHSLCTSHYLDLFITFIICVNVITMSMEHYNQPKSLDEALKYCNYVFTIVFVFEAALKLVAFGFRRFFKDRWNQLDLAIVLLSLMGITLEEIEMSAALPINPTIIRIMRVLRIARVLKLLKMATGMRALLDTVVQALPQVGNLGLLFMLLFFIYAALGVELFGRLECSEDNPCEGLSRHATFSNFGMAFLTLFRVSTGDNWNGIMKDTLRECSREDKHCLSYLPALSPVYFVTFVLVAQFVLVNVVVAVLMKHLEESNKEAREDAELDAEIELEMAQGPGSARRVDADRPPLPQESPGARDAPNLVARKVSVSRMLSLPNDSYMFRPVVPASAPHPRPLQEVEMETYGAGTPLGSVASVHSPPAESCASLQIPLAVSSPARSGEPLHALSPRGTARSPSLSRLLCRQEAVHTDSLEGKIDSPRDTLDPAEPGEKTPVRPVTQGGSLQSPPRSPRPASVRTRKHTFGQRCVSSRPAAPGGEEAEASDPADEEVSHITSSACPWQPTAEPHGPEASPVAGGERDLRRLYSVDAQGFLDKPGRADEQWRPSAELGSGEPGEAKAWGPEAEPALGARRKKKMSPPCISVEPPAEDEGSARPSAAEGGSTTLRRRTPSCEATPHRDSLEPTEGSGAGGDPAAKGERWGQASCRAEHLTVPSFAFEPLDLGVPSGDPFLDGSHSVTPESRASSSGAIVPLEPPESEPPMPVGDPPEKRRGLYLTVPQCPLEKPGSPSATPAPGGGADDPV

[7] = NIH-3T3 fibroblast cytotoxicity, dose response, cytotoxicity control, cell-based, fluorescence, Alamar Blue, secondary assay (AID 2327); assay type: functional;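 also: NIH-3T3 mouse fibroblasts cultured with fluconazole at 8 µg/mL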
[8] = A cytotoxicity screen of small molecule inhibitors of the PhoP region in Salmonella typhi identified in the primary screen. [Related pubchem assays: 1850, 1864, 1985 ]; assay type: functional
[9] = C. albicans growth with fluconazole, confirmation, fluorescence, retest (AID 2467); assay type: functional, cell-based
[10] = inhibitors of intracellular T. cruzi replication, confirmation, NIH3T3 host cells, beta-gal luminescence (AID 2044); assay type: functional, cell-based;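 also: intracellular parasites grown in NIH/3T3 mouse fibroblasts as host cells; luminescent beta-galactosidase reporter signal from transgenic T. cruzi replicating inside host cells; inhibitors lower the luminescence signal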
[11] = cytotoxicity toward NIH3T3 fibroblasts, dose response, counter-screen, cell-based, ATP luminescence, mouse fibroblasts (AID 2010); assay type: functional;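 also: cells exposed to compound for about 90 hours before reading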
[12] = THP-1 cell cytotoxicity, dose response, cytotoxicity control for non-replicating M. tuberculosis project (AID 489025); assay type: functional
[13] = cells; assay type: functional
[14] = tested on: INS1; experiment: beta cell apoptosis inhibitors, cytokine rescue, dose response, luminescence, retest (AID 449756); assay type: functional, cell-based; conditions: Rattus norvegicus;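 also: cell death triggered by IL-1 beta plus TNF-alpha plus IFN-gamma mixture; protective hits raise ATP signal compared with cytokine alone wells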
[15] = tested on: Streptococcus sp. 'group A'; experiment: growth inhibition of control SK(-) GAS strain, dose response, counter-screen for streptokinase expression inhibitor project, luminescence, kanamycin, BacTiterGlo, confirmation (AID 1900); assay type: functional, organism-based
[16] = biological target: T5, Streptokinase A (Streptococcus pyogenes serotype M1, UniProt P10520); experiment: S. pyogenes streptokinase expression inhibitors, potency, dose response, plasminogen activation absorbance, OD405 (AID 1914); assay type: functional, Streptococcus pyogenes M1 GAS;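 also: secreted streptokinase activity via plasminogen activation per viability signal from cell pellet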
T5 sequence (P10520 whole entry): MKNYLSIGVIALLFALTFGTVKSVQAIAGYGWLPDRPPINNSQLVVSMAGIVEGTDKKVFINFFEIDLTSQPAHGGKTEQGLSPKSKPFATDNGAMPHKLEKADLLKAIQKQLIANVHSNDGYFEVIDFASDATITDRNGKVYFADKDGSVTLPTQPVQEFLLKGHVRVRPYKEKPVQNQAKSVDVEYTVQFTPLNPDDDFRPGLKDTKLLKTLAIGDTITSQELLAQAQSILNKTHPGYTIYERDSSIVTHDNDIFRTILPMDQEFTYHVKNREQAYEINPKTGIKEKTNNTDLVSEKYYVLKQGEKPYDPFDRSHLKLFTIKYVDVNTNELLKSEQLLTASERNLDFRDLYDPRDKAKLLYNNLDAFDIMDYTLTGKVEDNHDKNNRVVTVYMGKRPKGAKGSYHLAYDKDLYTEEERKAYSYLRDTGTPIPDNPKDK

[17] = tested on: Streptococcus; experiment: Group A Streptococcus viability loss, dose response, counter-screen for streptokinase expression inhibitor project, luminescence, BacTiterGlo (AID 1915); assay type: functional, organism-based;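 also: potency for reduction of bacterial viability or growth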
[18] = biological target: FAD-linked sulfhydryl oxidase ALR (Homo sapiens, UniProt P55789); experiment: inhibitors of human ALR sulfhydryl oxidase, dose response, biochemical, H2O2 detection, luminescence, cherry-pick (AID 493248)
Sequence of FAD-linked sulfhydryl oxidase ALR (P55789 whole entry): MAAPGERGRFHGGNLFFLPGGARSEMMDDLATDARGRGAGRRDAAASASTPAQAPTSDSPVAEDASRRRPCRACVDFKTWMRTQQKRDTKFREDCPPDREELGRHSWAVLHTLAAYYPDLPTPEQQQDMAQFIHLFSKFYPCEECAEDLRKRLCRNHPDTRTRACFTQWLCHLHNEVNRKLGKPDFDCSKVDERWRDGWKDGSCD

[19] = HeLa cell cytotoxicity, dose response, cytotoxicity control for MgcRacGAP inhibitor project (AID 624300); assay type: functional
[20] = biological target: T6, Rac GTPase-activating protein 1 (Homo sapiens, UniProt Q9H0H5); experiment: MgcRacGAP GTPase-activating activity inhibitors, confirmation, biochemical, ADP Hunter fluorescence, primary and confirmatory (AID 624330); assay type: functional
T6 sequence (Q9H0H5 whole entry): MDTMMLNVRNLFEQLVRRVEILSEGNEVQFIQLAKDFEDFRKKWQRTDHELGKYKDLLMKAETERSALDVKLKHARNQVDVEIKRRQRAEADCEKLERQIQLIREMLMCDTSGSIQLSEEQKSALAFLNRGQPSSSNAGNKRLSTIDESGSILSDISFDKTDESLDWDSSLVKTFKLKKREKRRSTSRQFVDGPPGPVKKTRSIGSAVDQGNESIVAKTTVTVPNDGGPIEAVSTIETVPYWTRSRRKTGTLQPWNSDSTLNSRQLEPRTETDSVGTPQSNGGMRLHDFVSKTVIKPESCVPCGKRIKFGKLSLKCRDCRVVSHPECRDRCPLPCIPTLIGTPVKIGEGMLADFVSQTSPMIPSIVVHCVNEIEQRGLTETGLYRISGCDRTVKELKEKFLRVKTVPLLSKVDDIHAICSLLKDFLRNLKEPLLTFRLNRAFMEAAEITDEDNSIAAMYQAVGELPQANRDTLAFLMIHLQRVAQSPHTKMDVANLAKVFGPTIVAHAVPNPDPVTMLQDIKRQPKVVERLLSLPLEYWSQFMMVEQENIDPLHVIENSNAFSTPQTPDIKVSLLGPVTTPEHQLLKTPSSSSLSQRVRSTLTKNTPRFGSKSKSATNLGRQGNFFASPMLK

## c1ccc(Nc2ncnc3c2oc2ccccc23)cc1
[1]
  IC50: 31.3 µM (active)
[2]
  IC50: 11.9 µM (active)
[3]
  IC50: > 100 µM (inactive)
[4]
  IC50: > 100 µM (inactive)

## COC(=O)c1ccc(C(/C=C/[C@@H](C)C(=O)N(C)C)NC(=O)OCc2ccccc2)cc1 (stereo partly specified)
[5]
  AC50: 10 µM (inconclusive)

## O=C(CSCc1nc2ccccc2[nH]1)N1CCN(c2cccc(Cl)c2)CC1
[6]
  EC50: 3.55 µM (active)

## Cc1ccc(CC(=O)Nc2ncc([N+](=O)[O-])s2)cc1
[7]
  EC50: 37.3 µM (active)
[8]
  EC50: > 50 µM (active)
[9]
  EC50: 0.033 µM (active)
[10]
  EC50: 0.687 µM (active)
[11]
  EC50: > 30 µM (not active)

## Cc1nc(CS(=O)(=O)c2ccc(Cl)cc2)cc(Sc2ccc(Cl)cc2)n1
[6]
  EC50: 4.35 µM (active)

## CC1(C)CC[C@]2(C(=O)O)CC[C@@]3(C)C(=CCC4[C@@]5(C)CCC(O)[C@@](C)(CO)C5CC[C@@]43C)C2C1 (stereo partly specified)
[5]
  AC50: 12.6 µM (inconclusive)

## Nc1ncnc(Oc2cccc3cccnc23)c1[N+](=O)[O-]
[12]
  CC50: 39.5 µM (active)
[13]
  IC50: 10.8 µM (active)

## CC(C)(C)n1nnnc1C(c1ccc(F)cc1)N(Cc1ccc(F)cc1)Cc1ccco1 (stereo unspecified)
[6]
  EC50: 2.6 µM (active)
[14]
  AC50: 8.41 µM (active)

## CCO/C=C1/C(=O)N(c2ccc(OC)cc2)C(=O)c2ccccc21
[1]
  IC50: 7.36 µM (active)
[2]
  IC50: 25.8 µM (active)
[3]
  IC50: 8.55 µM (active)
[4]
  IC50: 11.6 µM (active)

## COC1C=CC23c4cc5c(cc4CN(CC2O)C3C1)OCO5 (stereo unspecified)
[5]
  AC50: 39.8 µM (inconclusive)

## Oc1ccc(C(c2nnnn2C2CCCC2)N2CCc3ccccc3C2)cc1 (stereo unspecified)
[6]
  EC50: 5.95 µM (active)

## O=C(NCCCN1CCOCC1)c1c(O)nc2c(Br)cc(Br)cc2c1O
[12]
  CC50: > 40 µM (active)
[13]
  IC50: 1.04 µM (active)

## COc1cccc2oc(-c3ccccc3)cc(=O)c12
[5]
  AC50: 31.6 µM (inconclusive)

## COc1cc(/C=N/NC(=O)c2cc(-c3c(C)nn(-c4ccccc4)c3C)[nH]n2)ccc1O
[15]
  EC50: 4.04 µM (active)
[16]
  EC50: 43.9 µM (inconclusive)
[17]
  EC50: 4.37 µM (active)
[18]
  AC50: 0.105 µM (active)
[19]
  CC50: 90 µM (active)
[20]
  IC50: 39.1 µM (active)

## COc1cc(-c2cc(-c3ccc(O)cc3)nc(N)c2C#N)ccc1O
[19]
  CC50: 100 µM (active)
[20]
  IC50: 34.7 µM (active)

## COc1c2ccoc2nc2c(OC)c(OCC(O)C(C)(C)O)ccc12 (stereo unspecified) [EVOXINE]
[5]
  AC50: 15.8 µM (inconclusive)

## COC(=O)c1c(C)cc(O)cc1O [METHYL ORSELLINATE]
[5]
  AC50: 12.6 µM (inconclusive)
